BindingDB's records for PubMed 20033049 (Institute)

Experiments:
[1] = Inhibition of TEL fused BLK (unknown origin) transformed in mouse BaF3 cells
[2] = Inhibition of TEL fused BMX (unknown origin) transformed in mouse BaF3 cells

IC50 [1]: 20 nM
IC50 [2]: 0.4 nM
Compound: C=CC(=O)Nc1cccc(Oc2nc(Nc3ccc(N4CCN(C)CC4)cc3)ncc2Cl)c1
